{
  "source": "patent US20210008095A1",
  "about": "“METHODS FOR TREATING MUSCULAR DYSTROPHY” (Sarepta Therapeutics, Inc., priority 2015, published 2021)",
  "key": {"[1]": {"system": "patients with Duchenne muscular dystrophy (DMD) amenable to exon 51 skipping", "assay": "6 Minute Walk Test (6MWT), Study 201/202", "format": "in vivo, human", "parameters": "key to Year 4 6MWT: 6MWT distance walked, in meters", "conditions": "for difference in mean change from baseline in 6MWT distance vs matched external control cohort: 12 treated vs 13 controls; for Year 4 6MWT/6MWD / Year 3 6MWT/6MWD: individual subjects; for Year 4 6MWT Difference in Mean Change: vs external matched control", "description": "For the eteplirsen treated cohort, eligible patients were between 7 and 13 years of age (inclusive), with out-of-frame deletions of the DMD gene that could be corrected by skipping exon 51. Patients were confirmed to have stable cardiac and pulmonary function and a stable dose of glucocorticoids for at least 24 weeks prior to enrollment. Only patients who could walk between 200 and 400 meters […] on the 6-Minute Walk Test (6MWT) at baseline were enrolled.\nThis 4 year trial was conducted in two phases: (1) treatment was double-blind through week 24 and (2) open-label thereafter. The primary endpoint was change in ambulation as measured by the 6-Minute Walk Test (6MWT).\nStudy 201 (Study no. 4658-us-201; ClinicalTrials.gov Identifier: NCT01396239) was a single-site, randomized, double-blind, placebo-controlled, multiple-dose efficacy, safety and tolerability trial of eteplirsen. Twelve patients with DMD were randomized to one of three groups: eteplirsen 30 mg/kg/week (Cohort 1); eteplirsen 50 mg/kg/week (Cohort 2); or placebo/delayed eteplirsen (Cohort 3). All patients received weekly intravenous eteplirsen or placebo/delayed eteplirsen dosing. Placebo-treated patients crossed over to weekly eteplirsen 30 (n=2) or 50 mg/kg (n=2) at week 25. Efficacy and safety were assessed at scheduled visits, and an independent Data Safety Monitoring Board ensured the welfare of all patients. All patients had bicep biopsies at baseline. Follow-up biopsies were performed in the opposite arm (biceps) at week 12 for the 50 mg/kg group and two placebo-treated patients and at week 24 for the 30 mg/kg group and two placebo-treated patients.\nPatients continued weekly dosing with 30 or 50 mg/kg eteplirsen under Study 202 (Study no. 4658-us-202; ClinicalTrials.gov Identifier: NCT01540409) a long-term, open-label extension study. All efficacy assessments continued to be performed during Study 202, including a third biopsy (in the left deltoid muscle) in all patients at week 48. A voluntary fourth biopsy ( 11/12 patients) was performed at week 180. Monitoring of adverse events continued throughout the study.\nTo compare the results of the eteplirsen cohort to a matched external control cohort, the Italian Telethon (n=97) and Leuven Neuromuscular Research Center (NMRC) (n=89) registries were used to compile control data. These registries were chosen because the following data was available: longitudinal 6MWT data in exon 51 amenable patients, longitudinal 6MWT data up to 36 months, and genetic mutation data. There was also an equivalent standard of care, including steroids, in these registries. Patient data was selected based on the following factors: baseline 6MTW and steroid treatment, age of 7 years or older, and amenable to exon 51 skipping (FIG. 2)\n(§1) The 6MWT was administered using the protocol established for patients with DMD by McDonald, et al. (Muscle Nerve, 2010; 42:966-74; Muscle Nerve, 2010; 41:500-10 herein incorporated by reference), except there was no use of the StepWatch actimetry device. Exploratory functional outcomes included the North Star Ambulatory Assessment, quantitative muscle testing, the 9-Hole Peg Test, pulmonary function testing (PFT), timed function tests, and assessment of quality of life."}, "[2]": {"system": "patients with Duchenne muscular dystrophy (DMD) amenable to exon 51 skipping", "assay": "Pulmonary function testing (MIP, MEP, FVC)", "format": "in vivo, human", "conditions": "baseline through Week 192", "excerpt": "In some embodiments, treatment with eteplirsen slows or reduces the progressive respiratory muscle dysfunction and/or failure in patients with DMD that would be expected without treatment. In some embodiments, treatment with eteplirsen stabilizes respiratory muscle function in patients with DMD. In one embodiment, treatment with eteplirsen may reduce or eliminate the need for ventilation assistance that would be expected without treatment. In one embodiment, measurements of respiratory function for tracking the course of the disease, as well as the evaluation of potential therapeutic interventions include Maximum inspiratory pressure (MIP), maximum expiratory pressure (MEP) and forced vital capacity (FVC). MIP and MEP measure the level of pressure a person can generate during inhalation and exhalation, respectively, and are sensitive measures of respiratory muscle strength. […]\nas §1"}},
  "note": "Several values for one entry are separate records, joined by “and”; a condition that tells them apart may be missing. Equal values may be shown once. Entries after “also recorded” stand apart in the source; their conditions may differ. Marks after values point to notes of the source that are not given here.",
  "data": [
    {"substance": "RNA, [P-deoxy-P-(dimethylamino)](2′,3′-dideoxy-2′,3′-imino-2′,3′-seco)(2′a→5′)(C-m5U-C-C-A-A-C-A-m5U-C-A-A-G-G-A-A-G-A-m5U-G-G-C-A-m5U-m5U-m5U-C-m5U-A-G), 5′-[P-[4-[[2-[2-(2-hydroxyethoxy)ethoxy]ethoxy]carbonyl]-1-piperazinyl]-N,N-dimethylphosphonamidate] (antisense CTCCAACATCAAGGAAGATGGCATTTCTAG; all phosphorodiamidate morpholino (PMO); 5' piperazinyl triethylene glycol carbamate tail on phosphonamidate, further chemistry not fully specified) [eteplirsen]", "values": [
      {"measurement": "difference in mean change from baseline in 6MWT distance vs matched external control cohort", "setting": "[1]; 4 years", "value": 162, "unit": "m"},
      {"measurement": "difference in mean change from baseline in 6MWT distance vs matched external control cohort", "setting": "[1]; 36 months / 3 years", "value": 151, "unit": "m"},
      {"measurement": "6MWT distance percent change from baseline", "setting": "[1]; 42 months, all 12 treated patients, external control −74% at month 36", "value": "−42", "unit": "%"},
      {"measurement": "6MWT distance percent change from baseline", "setting": "[1]; 48 months, placebo-delayed patients excluded (n=8)", "value": "−43", "unit": "%"},
      {"measurement": "Year 4 6MWT/6MWD", "setting": "[1]; 216 weeks, dose group 30 mg/kg", "value": "349 meters and 332 meters and 0 meters (2×)"},
      {"measurement": "Year 4 6MWT/6MWD", "setting": "[1]; 216 weeks, dose group 50 mg/kg", "value": "192 meters and 221 meters and 237 meters and 400 meters"},
      {"measurement": "Year 4 6MWT/6MWD", "setting": "[1]; 216 weeks, dose group Placebo to 30 mg/kg", "value": "197 meters and 55 meters"},
      {"measurement": "Year 4 6MWT/6MWD", "setting": "[1]; 216 weeks, dose group Placebo to 50 mg/kg", "value": "230 meters and 143 meters"},
      {"measurement": "Year 4 6MWT", "setting": "[1]; Table 5, individual ambulatory subjects (n=10)", "value": "192 and 197 and 230 and 332 and 221 and 55† and 400 and 349 and 237 and 143"},
      {"measurement": "Year 4 6MWT Distance (m)", "setting": "[1]; Table 6, individual ambulatory subjects (n=10)", "value": "55† m and 332 m and 230 m and 221 m and 400 m and 349 m and 192 m and 143 m and 237 m and 197 m"},
      {"measurement": "Year 3 6MWT/6MWD", "setting": "[1]; dose group 30 mg/kg", "value": "378 meters and 359 meters and 0 meters (2×)"},
      {"measurement": "Year 3 6MWT/6MWD", "setting": "[1]; dose group 50 mg/kg", "value": "324 meters and 355 meters and 298 meters and 483 meters"},
      {"measurement": "Year 3 6MWT/6MWD", "setting": "[1]; dose group Placebo to 30 mg/kg", "value": "312 meters and 100 meters"},
      {"measurement": "Year 3 6MWT/6MWD", "setting": "[1]; dose group Placebo to 50 mg/kg", "value": "301 meters and 247 meters"},
      {"measurement": "walking distance over the study", "setting": "[1]; over the duration of the study, FIG. 6", "value": "maintained a stable walking distance"},
      {"measurement": "walking ability retained relative to baseline", "setting": "[1]; several subjects including subject number 4, 216 weeks", "value": "greater than 50%"},
      {"measurement": "change in 6MWT relative to baseline", "setting": "[1]; subject number 15, 216 weeks", "value": "lost one meter"},
      {"measurement": "6MWT distance at year 4 in patients below the NSAA threshold at year 3", "setting": "[1]; subjects 003 and 005, respectively", "value": "143 meters and 192 meters"},
      {"measurement": "Year 4 6MWT Difference in Mean Change", "setting": "[1]; ANCOVA, Covariate: Baseline 6MWT", "value": "150.3, p = 0.002"},
      {"measurement": "Year 4 6MWT Difference in Mean Change", "setting": "[1]; ANCOVA, Covariates: Baseline 6MWT, Age", "value": "156.1, p = 0.002"},
      {"measurement": "Year 4 6MWT Difference in Mean Change", "setting": "[1]; ANCOVA, Rank transformed data", "value": "8.7, p = 0.001"},
      {"measurement": "Year 4 6MWT Difference in Mean Change", "setting": "[1]; MMRM, Covariate: Baseline 6MWT", "value": "146.5, p = 0.003"},
      {"measurement": "Year 4 6MWT Difference in Mean Change", "setting": "[1]; MMRM, Covariates: Baseline 6MWT, Age", "value": "143.1, p = 0.004"},
      {"measurement": "Year 4 6MWT Difference in Mean Change", "setting": "[1]; MMRM, Rank transformed data", "value": "8.4, p = 0.004"},
      {"measurement": "patient ambulation between weeks 168 and 192", "setting": "[1]; weeks 168 to 192 (42 to 48 months)", "value": "patient ambulation stabilized; also recorded: stabilized patient ambulation"},
      {"measurement": "pulmonary function (MIP, MEP, FVC)", "setting": "[2]", "value": "continued stabilization of pulmonary function; also recorded: either maintained or had only a slight decline in all of MIP, MEP, and FVC"}
    ]}
  ]
}
